{"source": "patent US20030203055A1", "about": "“Methods of treating visceral pain syndromes” (Cypress Bioscience, Inc., priority 2002, published 2003)", "key": {"[1]": {"system": "patients with a diagnosis of Irritable Bowel Syndrome (IBS) comorbid with fibromyalgia", "experiment": "12-week dose escalation monotherapy trial of milnacipran in Irritable Bowel Syndrome", "type": "in vivo, human", "details": "11 IBS/fibromyalgia patients, 25 to 200 mg daily", "protocol": "A 12-week dose escalation monotherapy trial was conducted to evaluate milnacipran's efficacy in patients with a diagnosis of Irritable Bowel Syndrome (IBS) comorbid with fibromyalgia. Patients were washed off of a variety medications-including centrally acting stimulants, antidepressants and sedative-hypnotics-over a 2-4 week period; this was followed by a two-week baseline period. After successful completion of the baseline period, patients were started on milnacipran. All patients were started at a dose of 25 mg daily, and were then escalated weekly over a 4-week period to 50, 100, and finally 200 mg daily, or until dose-limiting toxicity (DLT) was evident. In the event that DLT was evident, the patient was stabilized at the previously well-tolerated dosage, and remained on this dose for eight weeks at stable dose therapy.\nThe patient global impression of change (PGIC) was administered at clinic visits scheduled during the 4th, 8th, and 12th weeks of treatment. The PGIC is a highly clinically relevant instrument useful for measurement of patient improvement during controlled clinical trials. (Indeed, this instrument was the basis by which alosetron (Lotronex™) was approved by the Food and Drug Administration for the IBS indication.)\nThe PGIC is a conceptually simple instrument which assesses the patient's overall satisfaction with a course of drug therapy. This is done by asking the patient, “Since the start of the study, my overall status is:” with the patient choosing from the 7 choices depicted in Table 1.\nFor the present purposes, responses between 1-3 and 5-7 were collapsed into “Improved” and “Worse”, respectively."}, "norepinephrine reuptake": {"system": "norepinephrine reuptake", "details": "cited from earlier work; for activity in inhibiting norepinephrine reuptake relative to the racemic mixture: believed, Viazzo et al. 1996, Deprez et al. 1998"}, "serotonin reuptake": {"system": "serotonin reuptake", "details": "cited from earlier work; for activity in inhibiting serotonin reuptake relative to the racemic mixture: believed, Viazzo et al. 1996, Deprez et al. 1998"}, "NMDA receptor": {"system": "NMDA receptor", "details": "Shuto et al. 1995, 1996, 1998, 2001; cited from earlier work"}, "[2]": {"details": "in humans; Caccia 1998; cited from earlier work"}}}
{"smiles": "CCN(CC)C(=O)[C@@]1(c2ccccc2)C[C@H]1CN", "note": "(racemic) [milnacipran, (±)-cis-2-(aminomethyl)-N,N-diethyl-1-phenylcyclopropanecarboxamide]", "values": [{"measurement": "trial conclusion: therapy for IBS (PGIC at 12 weeks)", "setting": "[1]", "result": "safe and effective therapy for IBS"}, {"measurement": "most common adverse event", "setting": "[1]; 12 weeks", "result": "intermittent nausea"}, {"measurement": "nature of milnacipran related adverse events", "setting": "[1]; 12 weeks", "result": "transitory in nature"}, {"measurement": "reported AE of constipation", "setting": "[1]; 12 weeks", "result": "one"}, {"measurement": "serious adverse events during the course of the trial", "setting": "[1]; 12 weeks", "result": "no serious adverse events"}, {"measurement": "IC50", "setting": "norepinephrine reuptake; reported, Moret et al. 1985, Palmier et al. 1989", "result": "[…]"}, {"measurement": "IC50", "setting": "serotonin reuptake; reported, Moret et al. 1985, Palmier et al. 1989, read-out: IC50 serotonin reuptake inhibition", "result": 200, "unit": "nM"}, {"measurement": "antagonistic properties at the NMDA receptor", "setting": "NMDA receptor", "result": "have antagonistic properties at the NMDA receptor"}, {"measurement": "found in urine", "setting": "[2]", "result": "found in urine"}]}
{"smiles": "CCN(CC)C(=O)C1(c2ccc(O)cc2)CC1CN", "note": "(centres unmarked) [para-hydroxylated derivative]", "values": [{"measurement": "found in urine", "setting": "[2]", "result": "found in urine"}]}
